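Step 1: Grow cells in 96-well plates. Step 2: Expose to compound for 48 hours at 5 concentrations. Step 3: Interpolate endpoints linearly; if unreached, use highest concentration. GI50 is the concentration that inhibits growth by half. TGI: total growth inhibition.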
What was measured:
Test in all cases: DTP human tumour cell line panel, 48 h
A498 renal = tested on: A498 renal
A549 NSCLC = tested on: A549 NSCLC
COLO 205 colon = tested on: COLO 205 colon
HCT-116 colon = tested on: HCT-116 colon
RXF 393 renal = tested on: RXF 393 renal
SF-268 CNS = tested on: SF-268 CNS
SK-MEL-28 melanoma = tested on: SK-MEL-28 melanoma
BT-549 breast = tested on: BT-549 breast
NCI-H522 lung = tested on: NCI-H522 lung
T-47D breast = tested on: T-47D breast

Structure (SMILES) | TGI (A498 renal) | TGI (A549 NSCLC) | TGI (COLO 205 colon) | TGI (HCT-116 colon) | TGI (RXF 393 renal) | TGI (SF-268 CNS) | TGI (SK-MEL-28 melanoma) | TGI (BT-549 breast) | TGI (NCI-H522 lung) | TGI (T-47D breast) | GI50 (RXF 393 renal) | GI50 (SK-MEL-28 melanoma) | GI50 (A498 renal) | GI50 (A549 NSCLC) | GI50 (COLO 205 colon) | GI50 (HCT-116 colon) | GI50 (NCI-H522 lung) | GI50 (SF-268 CNS) | GI50 (BT-549 breast) | GI50 (T-47D breast)
CC1=C(O)c2cn(C)cc2C(=O)C1=O | > 100 µM | > 100 µM | > 100 µM | > 100 µM | > 100 µM | > 100 µM | > 100 µM |  |  |  |  |  |  |  |  |  |  |  |  | 
C=C1CC2CCCC12C=O (configuration not stated) |  | > 10 µM | > 10 µM | > 10 µM |  | > 10 µM | > 10 µM | > 10 µM | > 10 µM | > 10 µM |  |  |  |  |  |  |  |  |  | 
CN(C)c1ccc(/C=C/C(=O)[O-])cc1.CN(C)c1ccc(/C=C/C(=O)[O-])cc1.[Cu+2] | > 86.4 µM | > 100 µM | > 100 µM | > 100 µM | > 100 µM | > 100 µM | > 100 µM |  | > 100 µM |  | > 100 µM | > 69.8 µM |  |  |  |  |  |  |  | 
COC(=O)CCC(NC(=S)N/N=C/c1ccccn1)C(=O)OC (configuration not stated) | > 100 µM | > 100 µM | > 100 µM | > 100 µM | > 100 µM | > 100 µM | > 100 µM |  | > 100 µM |  |  |  |  |  |  |  |  |  |  | 
O=C1/C(=N\O)c2ccccc2S1(=O)=O | > 100 µM | > 100 µM | 73.6 µM | > 100 µM | > 100 µM | > 100 µM |  |  | > 100 µM |  |  |  |  |  |  |  |  |  |  | 
C#CCNC(=O)N(CC#C)N=O | > 100 µM |  |  | > 100 µM | > 100 µM | > 100 µM | > 100 µM |  | 41.6 µM |  |  |  |  |  |  |  |  |  |  | 
N.N.NCCCCCN.O=C([O-])CCl.O=C([O-])CCl.O=C([O-])CCl.O=C([O-])CCl.[Pt+4].[Pt+4] | 31.2 µM | 30 µM | 8.45 µM | > 100 µM | 21.1 µM | 36.8 µM | 73.8 µM |  | 73.8 µM |  | 2.87 µM | 23.2 µM | 11 µM | 3.03 µM | 1.78 µM | 10.8 µM | 3.3 µM | 2.13 µM |  | 
O=c1cc(-c2ccccc2)oc2ccc(OC/C(=N/O)c3ccccc3)cc12 |  | > 50 µM | 25.3 µM | > 50 µM | 14.8 µM | 13.2 µM | > 50 µM | 9.01 µM | > 50 µM |  | 2.46 µM | 8.38 µM |  | 3 µM | 1.89 µM | 3.11 µM | 2.88 µM | 2.08 µM | 1.46 µM | 
Nc1c(-c2cn(Cc3ccccc3)c3ccccc23)[n+]([O-])c2ccccc2[n+]1[O-] | 41.9 µM | > 100 µM | > 100 µM |  |  | > 100 µM | 91.8 µM |  | 48.6 µM |  |  |  |  |  |  |  |  |  |  | 
CC1=Nc2ccccc2NC(c2ccoc2)C1 (configuration not stated) | > 100 µM | > 100 µM | > 100 µM | > 100 µM | > 100 µM | > 100 µM | > 100 µM |  | > 100 µM |  |  |  |  |  |  |  |  |  |  | 
Cc1cc([N+](=O)[O-])ccc1NC(=O)C(=O)C(C(=O)c1ccccc1-c1ccccc1)C1OC(=O)c2ccccc21 (configuration not stated) |  | > 100 µM | 41.8 µM | 29.9 µM | 19.5 µM | 58.1 µM | > 100 µM |  | 26.2 µM |  |  |  |  |  |  |  |  |  |  | 
O=C1/C(=C\c2ccc(F)cc2)CN(C(=O)c2ccccc2)C/C1=C\c1ccc(F)cc1 |  | 71.9 µM | 10 µM | 1.71 µM | 4.85 µM |  | 5.88 µM | 3.43 µM | 7.73 µM | 71.4 µM | 1.99 µM | 2.24 µM |  | 4.92 µM | 3.15 µM | 0.428 µM | 2.35 µM |  | 1.81 µM | 6.22 µM
COc1c(C)cc(O)cc1C=O |  | > 100 µM | > 100 µM |  | > 100 µM | > 100 µM | > 100 µM |  | > 100 µM |  |  |  |  |  |  |  |  |  |  | 
CC(=O)Nc1ccccc1-c1nc2ccccc2nc1C | > 100 µM | > 100 µM | > 100 µM | > 100 µM |  | > 100 µM | > 100 µM |  | > 100 µM |  |  |  |  |  |  |  |  |  |  | 
COC(=O)C1=Cc2cc(OC)c(OC)c(OC)c2[C@H](c2cc(OC)c(OC)c(OC)c2)C1C(=O)OC (some centres not stated) | > 100 µM | > 100 µM | > 100 µM | > 100 µM | > 100 µM | > 100 µM | > 100 µM |  | > 100 µM |  |  |  |  |  |  |  |  |  |  | 
CC[C@H](NC(=O)[C@H]1CCCCN1C)C(=O)N(C)[C@H](C[C@@H](OC(C)=O)c1nc(C(=O)N[C@@H](Cc2ccccc2)C[C@H](C)C(=O)O)cs1)C(C)C |  | > 14.3 µM | 0.0499 µM | > 14.3 µM | > 14.3 µM | > 14.3 µM |  | 0.473 µM | 0.337 µM | > 14.3 µM | 0.00391 µM |  |  | 0.0109 µM | 0.00396 µM | 0.00366 µM | 0.00284 µM | < 0.03 µM | 0.00631 µM | 0.0058 µM
O=C(COc1ccc(/C=C2\COc3ccccc3C2=O)cc1)Nc1nccs1 | 33.7 µM | 47.4 µM | 29 µM | 12.8 µM |  | 21.7 µM | 26.1 µM |  | 4.39 µM | 38.8 µM |  | 13.2 µM | 19.3 µM | 14.3 µM | 14.6 µM | 3.75 µM | 1.91 µM | 6.81 µM |  | 16.1 µM
COc1cccc2ccc(C(=O)c3ccccc3)nc12 |  | > 100 µM | > 100 µM | > 100 µM |  | > 100 µM | > 100 µM |  | > 100 µM |  |  |  |  |  |  |  |  |  |  | 
O=C1CC(c2c(-c3ccccc3)[nH]c3ccccc23)C(=O)N1 (configuration not stated) | > 100 µM | > 100 µM |  | > 100 µM | > 100 µM |  | > 100 µM |  |  |  |  |  |  |  |  |  |  |  |  | 
N#Cc1c(NC(=O)NCc2ccccc2)sc2c1CCCC2 | 1.13 µM | > 100 µM | > 28.9 µM | > 100 µM | 14.1 µM | > 100 µM | > 100 µM | > 100 µM | > 100 µM |  | 0.481 µM | 6.37 µM | 0.236 µM | 0.731 µM | 0.593 µM | 0.533 µM | 0.559 µM | 1.82 µM | 1.25 µM | 
COc1ccc(OC(C)=O)c2c1CCC=CC2=O | 37.5 µM | 35.4 µM | 23 µM | 34.3 µM | 21.6 µM |  | 28.6 µM |  | 3.8 µM |  |  |  |  |  |  |  |  |  |  | 
COC1OC(CO)C(O)C(OC(C)=O)C1NC(=O)N(CCCl)N=O (configuration not stated) | > 100 µM | > 100 µM | > 100 µM | > 100 µM | > 100 µM | > 100 µM | > 100 µM |  | > 100 µM |  |  |  |  |  |  |  |  |  |  | 

Source: PubChem BioAssay (NCI)
